Measured values published in patent US20030129193A1 (priority 2001, published 2003).

Tests used:
[1] = system: cancer patients having progressive disease; conditions: human, in vivo; cited from earlier work
[2] = system: TNFα; conditions: cited from earlier work
[3] = system: tissue factor on HUVEC cells; assay: FACS analysis of tissue factor expression; assay type: cell-based, human; conditions: 6 h at 37°; TNFα 500 U/ml, LPS 10 μg/ml, VEGF 1 nM
Method: To analyze tissue factor expression on the surface of endothelial cells, HUVEC cells were incubated with TNFα (500 U/ml), LPS (10 μg/ml) or vascular endothelial growth factor (VEGF, 1 nM) alone or in combination for 6 h at 37°. Cells were then detached and stained for surface expression of human tissue factor with a sheep-anti-human tissue factor antibody (Haemochrom, Essen, Germany) and an appropriate FITC-conjugated secondary antibody. Fluorescent cells were detected on a flow cytometer (Becton Dickinson. San Jose, Calif.).

[4] = system: VCAM-1; assay: FACS for upregulation of VCAM-1; assay type: cell-based, mouse
Method: (§1) Mouse endothelial cells were seeded in 48 well tissue culture plates and allowed to adhere overnight. Cells were stimulated with TNFα at the following concentrations: 500 U/ml; 100 U/ml; 20 U/ml; 4 U/ml; 0.8 U/ml; 0.16 U/ml; and with medium only.
Endothelial cells were then investigated for upregulation of the adhesion molecule VCAM-1 by fluorescence activated cell stain (FACS). To this end, cells were stained with an antibody against murine VCAM-1, followed by an appropriate FITC-conjugated secondary antibody. Fluorescent cells were detected on a flow cytometer (Becton Dickinson. San Jose, Calif.).

[5] = system: Mouse endothelial cells; assay: Cell based two stage coagulation assay
Method: as §1
Endothelial cells were also tested for coagulant activity in a cell based two stage coagulation assay. After incubation with TNFα, cells were washed and incubated with coagulation factor mix (0.5 μg/ml factor VIIa in a mix containing 2.8 μg/ml factor IX, 3.4 μg/ml factor X, 50 μM phospholipids, in calcium buffer). The supernatant of wells was transferred into a 96 well ELISA plate. Substrate S2765 was added and Factor Xa generation measured.

[6] = system: Factor X on IL-1α-stimulated bEnd.3 cells; assay: Chromogenic assay of coaguligand-induced Factor Xa formation; assay type: cell-based; conditions: 10 μg per ml
Method: The ability of Annexin V to affect Factor Xa formation induced by coaguligand was determined by a chromogenic assay. […] Annexin V was added at concentrations ranging from 0.1 to 10 μg/ml and cells were incubated for 30 min. before addition of diluted Proplex T. The amount of Factor Xa generated in the presence or absence of Annexin V was determined. Each treatment was performed in duplicate and repeated at least twice.

[7] = system: L540 Hodgkin tumors; assay: Annexin V inhibition of coaguligand-induced thrombosis in vivo; parameters: species or system SCID mice
Method: The ability of Annexin V to inhibit coaguligand-induced thrombosis in vivo was examined in L540 Hodgkin-bearing SCID mice.
Four hours after the last injection mice were anesthetized and perfused with heparinized saline. Tumors were removed, fixed with 4% formalin, paraffin-embedded and stained with hematoxylene-eosin. The number of thrombosed and non-thrombosed blood vessels were counted and the percentage of thrombosis was calculated.

NC(=O)c1nnn(Cc2cc(Cl)c(C(=O)c3ccc(Cl)cc3)c(Cl)c2)c1N [CAI, carboxyamidotriazole]
disease stabilization, patients [1]: 49%

Cc1ccc2c(=O)c3cccc(CC(=O)O)c3oc2c1C [DMXAA]
effectiveness in inducing TNFα, less than endotoxin [2]: 20 fold

TNFα
tissue factor expression on the surface of HUVEC [3]: upregulated tissue factor expression | TNFα required for a measurable increase of VCAM-1 expression [4]: 20 U/ml | dose lower than for VCAM-1 upregulation [5]: 125 fold | TNFα at which an increase versus negative control could be detected ([5]; Factor Xa generation): 0,16 U/ml

B1: Annexin V: binds to PS with high affinity (protein, UniProt P08758 2-320, looked up)
Annexin A5: AQVLRGTVTDFPGFDERADAETLRKAMKGLGTDEESILTLLTSRSNAQRQEISAAFKTLFGRDLLDDLKSELTGKFEKLIVALMKPSRLYDAYELKHALKGAGTNEKVLTEIIASRTPEELRAIKQVYEEEYGSSLEDDVVGDTSGYYQRMLVVLLQANRDPDAGIDEAQVEQDAQALFQAGELKWGTDEEKFITIFGTRSVSHLRKVFDKYMTISGFQIEETIDRETSGNLEQLLLAVVKSIRSIPAYLAETLYYAMKGAGTDDHTLIRVMVSRSEIDLFNIRKEFRKNFATSLYSMIKGDTSGDYKKALLLLCGEDD
inhibition of factor Xa production [6]: 58% | coaguligand-induced anti-tumor effects after pre-treatment ([7]; 100 μg Annexin V, 2 hours before 40 μg anti-VCAM-1•tTF): completely abolished | tumor morphology ([7]; 100 μg alone): did not alter tumor morphology
